Calls of active or inactive are those of the source. The calls are words filed in the database; no cut-off is given here.
Experiments:
[1] = Antioxidant activity assessed as DPPH free radical scavenging activity at 200 uM after 30 mins by spectrophotometric analysis; assay type: physicochemical; conditions: 0.5 h
[2] = target: T1, Prostaglandin G/H synthase 2 (Homo sapiens, UniProt P35354); test: Inhibition of human recombinant COX-2 using arachidonic acid as substrate assessed as PGE2 production preincubated for 10 mins followed by substrate addition incubated for 2 mins by ELISA
T1 sequence (P35354 whole entry): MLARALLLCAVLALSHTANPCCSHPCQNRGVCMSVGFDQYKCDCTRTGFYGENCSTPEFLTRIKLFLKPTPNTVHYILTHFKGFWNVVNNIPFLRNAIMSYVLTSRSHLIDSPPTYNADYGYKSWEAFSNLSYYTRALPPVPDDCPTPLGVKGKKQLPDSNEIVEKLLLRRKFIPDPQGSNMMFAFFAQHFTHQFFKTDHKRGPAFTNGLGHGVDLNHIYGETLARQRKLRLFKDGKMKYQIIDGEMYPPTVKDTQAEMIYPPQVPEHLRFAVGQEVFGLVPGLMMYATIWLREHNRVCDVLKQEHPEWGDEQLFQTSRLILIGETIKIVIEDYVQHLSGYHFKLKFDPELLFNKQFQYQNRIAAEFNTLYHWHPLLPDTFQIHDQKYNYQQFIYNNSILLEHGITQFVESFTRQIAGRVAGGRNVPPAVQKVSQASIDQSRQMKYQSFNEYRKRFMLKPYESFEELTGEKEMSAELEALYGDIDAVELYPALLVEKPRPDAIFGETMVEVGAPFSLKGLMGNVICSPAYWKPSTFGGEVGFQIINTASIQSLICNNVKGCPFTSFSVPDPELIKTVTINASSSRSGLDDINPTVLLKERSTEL

[3] = target: T2, Prostaglandin G/H synthase 1 (Ovis aries, UniProt P05979); test: Inhibition of ovine COX-1 using arachidonic acid as substrate assessed as PGE2 production preincubated for 10 mins followed by substrate addition incubated for 2 mins by ELISA
T2 sequence (P05979 whole entry): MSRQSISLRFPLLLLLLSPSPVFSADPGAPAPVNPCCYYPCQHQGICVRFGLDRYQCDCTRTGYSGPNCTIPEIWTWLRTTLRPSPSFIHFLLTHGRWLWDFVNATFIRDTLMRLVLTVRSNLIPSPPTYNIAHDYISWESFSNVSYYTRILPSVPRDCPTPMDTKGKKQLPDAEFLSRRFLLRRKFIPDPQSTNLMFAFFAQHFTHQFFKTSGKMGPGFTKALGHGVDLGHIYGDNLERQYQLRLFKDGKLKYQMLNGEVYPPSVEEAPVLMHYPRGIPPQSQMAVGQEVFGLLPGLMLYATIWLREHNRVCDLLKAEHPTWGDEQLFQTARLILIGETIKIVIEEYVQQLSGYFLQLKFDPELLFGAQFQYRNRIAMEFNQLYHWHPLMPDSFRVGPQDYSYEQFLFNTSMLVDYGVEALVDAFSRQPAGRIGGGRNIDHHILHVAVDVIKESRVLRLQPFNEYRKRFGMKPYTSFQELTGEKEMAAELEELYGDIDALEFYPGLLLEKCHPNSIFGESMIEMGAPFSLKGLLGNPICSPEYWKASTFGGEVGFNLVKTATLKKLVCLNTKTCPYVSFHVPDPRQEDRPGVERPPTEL

[4] = Selectivity index ratio of IC50 for ovine COX-1 to IC50 for human recombinant COX-2
[5] = Antioxidant activity assessed as DPPH free radical scavenging activity at 0.06 to 200 uM after 30 mins by spectrophotometric analysis; assay type: physicochemical; conditions: 0.5 h
Mus musculus [6] = test: Antiinflammatory activity in carrageenan-induced BALB/c mouse paw edema model assessed as decrease in paw volume administered orally 30 mins prior to carrageenan challenge measured after 1 to 6 hrs by plethysmometric analysis; assay type: functional, organism-based
Mus musculus [7] = test: Antiinflammatory activity in carrageenan-induced BALB/c mouse peritonitis model assessed as decrease in nitric oxide level in peritoneal exudates at 10 to 20 mg/kg administered via oral gavage 30 mins prior to carrageenan challenge measured after 4 hrs by Griess method; assay type: functional, organism-based
HepG2 [8] = test: Antioxidant activity in human HepG2 cells assessed as reduction of H2O2-induced ROS level at 10 uM pretreated for 20 hrs followed by H2O2 stimulation for 30 mins by DCF-DA-based fluorescence analysis relative to control; assay type: functional; parameters: scale not given: the % may be the effect or the level left
Mus musculus [9] = test: Antiinflammatory activity in BALB/c mouse paw edema model assessed as decrease in myeloperoxidase activity in paw exudates at 20 mg/kg, po administered 30 mins prior to carrageenan challenge measured after 4 hrs by microplate reader analysis relative to control; assay type: functional; parameters: scale not given: the % may be the effect or the level left
HepG2 [10] = test: Cytotoxicity against human HepG2 cells at 2.5 to 10 uM by MTT assay; assay type: cell-based; conditions: hepg2, 10 µM
Mus musculus [11] = test: Antiinflammatory activity in BALB/c mouse paw edema model assessed as decrease in myeloperoxidase activity in paw exudates at 10 mg/kg, po administered 30 mins prior to carrageenan challenge measured after 4 hrs by microplate reader analysis relative to control; assay type: functional; parameters: scale not given: the % may be the effect or the level left
Mus musculus [12] = test: Antiinflammatory activity in carrageenan-induced BALB/c mouse peritonitis model assessed as decrease in number of leukocytes in peritoneal exudates administered via oral gavage 30 mins prior to carrageenan challenge measured after 4 hrs; assay type: functional, organism-based
Mus musculus [13] = test: Antiinflammatory activity in carrageenan-induced BALB/c mouse paw edema model assessed as decrease in paw volume at 20 mg/kg, po administered 30 mins prior to carrageenan challenge measured after 6 hrs by plethysmometric analysis relative to control; assay type: functional; parameters: scale not given: the % may be the effect or the level left
Mus musculus [14] = test: Antiinflammatory activity in carrageenan-induced BALB/c mouse paw edema model assessed as decrease in paw volume at 10 mg/kg, po administered 30 mins prior to carrageenan challenge measured after 6 hrs by plethysmometric analysis relative to control; assay type: functional; parameters: scale not given: the % may be the effect or the level left
Mus musculus [15] = test: Antiinflammatory activity in carrageenan-induced BALB/c mouse peritonitis model assessed as decrease in number of leukocytes in peritoneal exudates at 10 to 20 mg/kg administered via oral gavage 30 mins prior to carrageenan challenge measured after 4 hrs; assay type: functional, organism-based

| Compound | Activity [1] | IC50 [2] [µM] | IC50 [3] [µM] | Ratio IC50 [4] | Activity [5] | Activity (Mus musculus [6]) | Activity (Mus musculus [7]) | Activity (HepG2 [8]) [%] | Activity (Mus musculus [9]) | Activity (HepG2 [10]) | Activity (Mus musculus [11]) [%] | Activity (Mus musculus [12]) | Activity (Mus musculus [13]) [%] | Activity (Mus musculus [14]) [%] | Activity (Mus musculus [15]) |
| --- | --- | --- | --- | --- | --- | --- | --- | --- | --- | --- | --- | --- | --- | --- | --- |
| O=C(O)c1cc(/C=C/c2ccc(O)cc2)ccc1O | Active | > 500 | 421 |  |  |  |  |  |  |  |  |  |  |  |  |
| O=C(O)c1cc(/C=C/c2cc(O)cc(O)c2)ccc1O |  | 10.3 | 3.2 | 0.31 | Active |  |  |  |  |  |  |  |  |  |  |
| COC(=O)c1cc(/C=C/c2cc(O)cc(O)c2)ccc1O |  | 1 | 4.1 | 4.1 | Active | Dose-dependent effect | inactive | 33 | 60% | Non-toxic | 60 | Dose-dependent effect | 74 | 59 |  |
| Oc1ccc(/C=C/c2cc(O)cc(O)c2)cc1 [RESVERATROL] |  |  |  |  | Active | Dose-dependent effect | inactive | 25 | 53% | Non-toxic |  |  | 52 | 34 | Active |
| COc1ccc(/C=C/c2cc(OC)cc(OC)c2)cc1 [TRISMETHOXYRESVERATROL] |  | 1.67 | 1.23 | 0.74 |  | Dose-dependent effect | inactive | 42 | inactive | Non-toxic |  | Dose-dependent effect | 34 | 19 |  |
